Test results: patent US7132504B2, “Hepatitis C virus inhibitors” (Bristol-Myers Squibb Company, priority 2003, dated 2006)

Experiments:
human liver cathepsin B = biological target: T1, human liver cathepsin B (Homo sapiens, UniProt P07858); test: Specificity assay, cathepsin B; format: biochemical; conditions: assay interference at higher concentrations
T1 construct: purchased Sigma; host or cells: human liver
Method: The specificities of compounds of the present invention were determined against a variety of serine proteases: human neutrophil elastase (HNE), porcine pancreatic elastase (PPE) and human pancreatic chymotrypsin and one cysteine protease: human liver cathepsin B. In all cases a 96-well plate format protocol using colorimetric p-nitroaniline (pNA) substrate specific for each enzyme was used as described previously (PCT Patent Application No. WO 00/09543) with some modifications to the serine protease assays. All enzymes were purchased from Sigma while the substrates were from Bachem.
Each assay included a 2 h enzyme-inhibitor pre-incubation at room temperature followed by addition of substrate and hydrolysis to ˜30% conversion as measured on a Spectramax Pro microplate reader. Compound concentrations varied from 100 to 0.4 μM depending on their potency. […]
The percentage of inhibition was calculated using the formula: [1−((UVinh−UVblank)/(UVctl−UVblank))]×100 […]

[1] = biological target: T2, NS3/4A protease complex, J4L6S strain (Hepatitis C virus genotype 1b, UniProt O92972, C1454S/C1711G); test: Recombinant HCV NS3/4A protease complex FRET peptide assay, J4L6S strain; format: biochemical, HCV genotype 1b (J4L6S)
T2 construct: DNA encoding the recombinant HCV NS3/4A protease complex (amino acids 1027 to 1711) for these strains; inferred from pET21b vector and Ni-NTA purification; made in house; host or cells: Escherichia coli BL21 (DE3), pET21b
Description: The purpose of this in vitro assay was to measure the inhibition of HCV NS3 protease complexes, derived from the BMS strain, H77 strain or J416S strain, as described below, by compounds of the present invention. This assay provides an indication of how effective compounds of the present invention would be in inhibiting HCV proteolytic activity.
Serum from an HCV-infected patient was obtained from Dr. T. Wright, San Francisco Hospital. An engineered full-length cDNA (compliment deoxyribonucleic acid) template of the HCV genome (BMS strain) was constructed from DNA fragments obtained by reverse transcription-PCR (RT-PCR) of serum RNA (ribonucleic acid) and using primers selected on the basis of homology between other genotype 1a strains. From the determination of the entire genome sequence, a genotype 1a was assigned to the HCV isolate according to the classification of Simmonds et al. (See P Simmonds, K A Rose, S Graham, S W Chan, F McOmish, B C Dow, E A Follett, P L Yap and H Marsden, J. Clin. Microbiol., 31(6), 1493–1503 (1993)). […]

T2 sequence (O92972 1027-1711 C1454S/C1711G, one chain of several): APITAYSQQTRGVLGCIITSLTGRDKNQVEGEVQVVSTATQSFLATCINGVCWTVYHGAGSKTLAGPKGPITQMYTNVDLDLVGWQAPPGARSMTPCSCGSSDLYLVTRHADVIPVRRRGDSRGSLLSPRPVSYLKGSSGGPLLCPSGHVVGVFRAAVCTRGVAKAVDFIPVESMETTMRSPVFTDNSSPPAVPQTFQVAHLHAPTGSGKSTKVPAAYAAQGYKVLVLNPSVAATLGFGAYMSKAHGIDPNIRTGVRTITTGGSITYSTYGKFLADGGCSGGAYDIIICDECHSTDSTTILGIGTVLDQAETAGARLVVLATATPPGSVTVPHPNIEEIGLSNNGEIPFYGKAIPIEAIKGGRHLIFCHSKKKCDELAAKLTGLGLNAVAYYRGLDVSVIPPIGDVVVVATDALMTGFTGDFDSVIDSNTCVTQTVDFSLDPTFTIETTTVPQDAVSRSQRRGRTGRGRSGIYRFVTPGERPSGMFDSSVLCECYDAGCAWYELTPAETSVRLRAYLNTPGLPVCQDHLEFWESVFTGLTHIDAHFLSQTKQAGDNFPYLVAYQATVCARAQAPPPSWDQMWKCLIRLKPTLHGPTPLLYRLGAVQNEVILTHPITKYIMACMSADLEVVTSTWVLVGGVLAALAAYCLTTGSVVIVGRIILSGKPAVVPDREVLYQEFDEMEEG

Question: With `C=CC1C[C@]1(NC(=O)[C@@H]1C[C@@H](Oc2cc(-c3ccccc3)nc3cc(OC)ccc23)CN1C(=O)[C@@H](NC(=O)OC)C(C)(C)C)C(=O)NS(=O)(=O)N(C)Cc1ccccc1` (some centres unmarked) [Compound 9] as the compound, how does the IC50 (human liver cathepsin B) read?
Answer: > 50000 nM

Question: What about the IC50 [1] of the same compound?
Answer: 41 nM
